Patent publication US12612380B2, “Non-lysosomal glucosylceramidase inhibitors and uses thereof” (ALECTOS THERAPEUTICS INC., priority 2019, dated 2026)
Read-outs that look alike come from different tables or passages of the source.

Assays:
GBA2 [1] = molecular target: T1, GBA2 (Homo sapiens, UniProt Q9HCG7); assay: Binding specificity (selectivity) for GBA2 over other enzymes; type: biochemical; settings: compared to a suitable reference compound, e.g. NB-DNJ (miglustat) or AMP-DNM
T1 sequence (Q9HCG7 1-927): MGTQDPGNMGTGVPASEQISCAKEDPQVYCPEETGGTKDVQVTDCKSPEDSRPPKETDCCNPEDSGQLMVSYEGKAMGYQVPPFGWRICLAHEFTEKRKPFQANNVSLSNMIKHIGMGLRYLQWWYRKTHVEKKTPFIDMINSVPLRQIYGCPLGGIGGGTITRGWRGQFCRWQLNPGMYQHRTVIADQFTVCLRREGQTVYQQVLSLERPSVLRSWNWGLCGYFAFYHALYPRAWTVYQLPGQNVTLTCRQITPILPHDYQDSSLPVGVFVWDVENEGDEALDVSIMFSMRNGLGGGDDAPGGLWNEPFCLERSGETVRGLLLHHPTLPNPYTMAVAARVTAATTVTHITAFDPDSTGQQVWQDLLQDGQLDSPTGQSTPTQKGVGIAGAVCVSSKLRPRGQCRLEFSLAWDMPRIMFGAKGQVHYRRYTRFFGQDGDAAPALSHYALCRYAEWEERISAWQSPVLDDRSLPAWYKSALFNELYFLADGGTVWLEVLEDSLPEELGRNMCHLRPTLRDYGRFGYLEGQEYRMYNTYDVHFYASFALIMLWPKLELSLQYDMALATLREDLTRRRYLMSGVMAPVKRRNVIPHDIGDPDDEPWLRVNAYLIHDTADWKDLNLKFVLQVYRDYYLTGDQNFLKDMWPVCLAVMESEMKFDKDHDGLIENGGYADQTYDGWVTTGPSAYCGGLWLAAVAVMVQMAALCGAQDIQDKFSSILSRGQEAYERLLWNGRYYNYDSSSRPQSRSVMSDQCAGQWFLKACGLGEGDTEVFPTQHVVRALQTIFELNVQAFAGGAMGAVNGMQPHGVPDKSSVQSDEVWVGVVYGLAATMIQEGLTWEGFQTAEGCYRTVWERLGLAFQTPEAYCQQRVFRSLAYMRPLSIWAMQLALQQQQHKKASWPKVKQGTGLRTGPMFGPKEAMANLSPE
From the text: In some embodiments, one or more of the compounds according to the invention may specifically bind a GBA2. In alternative embodiments, one or more of the compounds according to the invention may specifically bind the active site of a GBA2. […] In alternative embodiments, one or more of the compounds according to the invention may specifically bind the human non-lysosomal glucosylceramidase (GBA2) over the human lysosomal glucosylceramidase (GCase) and/or the human cytosolic glucosylceramidase (GBA3). In alternative embodiments, one or more of the compounds according to the invention may specifically bind the human non-lysosomal glucosylceramidase (GBA2) over the human glucosylceramide synthase (GCS). In alternative embodiments, one or more of the compounds according to the invention may specifically bind the human non-lysosomal glucosylceramidase (GBA2) over an intestinal alpha-glucosidase, where the intestinal alpha-glucosidase may be a sucrase-isomaltase or a maltase-glucoamylase.

[2] = Brain concentration when administered in vivo; settings: compared to a suitable reference compound, e.g. NB-DNJ (miglustat) or AMP-DNM
From the text: Permeability can be assessed using a variety of standard experimental techniques, including without limitation in situ perfusion, ex vivo tissue diffusion, in vitro cell monolayers (e.g. Caco-2 cells, MDCK cells, LLC-PK1 cells), and artificial cell membranes (e.g. PAMPA assay); suitable techniques for measuring effective permeability (Peff) or apparent permeability (Papp) are reviewed for example by Volpe in The AAPS Journal, 2010, 12(4), 670-678. In some embodiments, one or more of the compounds according to the invention may show enhanced permeability when tested in one or more of these assays for determining Peff or Papp. […] In some embodiments, “enhanced permeability” means an increase in measured Peff or Papp by any value between about 10% and about 100%, or of any integer value between about 10% and about 100%, for example, about 10%, 20%, 30%, 40%, 50%, 60%, 70%, 80%, 90%, 100%, or over 100%, or an increase by about 1-fold, 2-fold, or 3-fold, or more, as compared to a suitable reference compound such as, for example, N-butyldeoxynojirimycin (NB-DNJ, miglustat) or N-(5-adamantane-1-yl-methoxy)pentyl)-deoxynojirimycin (AMP-DNM, Genz-529648). In some embodiments, “enhanced permeability” means a measurable Papp value (i.e. a value greater than zero) in a suitable assay to measure Papp using in vitro cell monolayers. In some embodiments, “enhanced permeability” means a Papp value greater than 2×10^−6 cm/s in a suitable assay to measure Papp using in vitro cell monolayers. In alternative embodiments, “enhanced permeability” means a Papp value in the range 2×10^−6 cm/s to 40×10^−6 cm/s in a suitable assay to measure Papp using in vitro cell monolayers. In some embodiments, “higher brain concentration” means an increase in measured brain concentration when the compound is administered in vivo by any value between about 10% and about 100%, or of any integer value between about 10% and about 100%, for example, about 10%, 20%, 30%, 40%, 50%, 60%, 70%, 80%, 90%, 100%, or over 100%, or an increase by about 1-fold, 2-fold, 3-fold, 4-fold, 5-fold, 10-fold, 20-fold, 30-fold, 40-fold, or 50-fold, or more, as compared to a suitable reference compound such as, for example, N-butyldeoxynojirimycin (NB-DNJ, miglustat) or N-(5-adamantane-1-yl-methoxy)pentyl)-deoxynojirimycin (AMP-DNM, Genz-529648).

GBA2 [3] = molecular target: T1, GBA2; assay: Determination of IC50 values for inhibition of GBA2 in cell lysate; type: biochemical; parameters: host or cells: HEK293T (lentiviral transduction, puromycin selection); used as cellular homogenate
In short: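 Fluorogenic 4-MU-β-glucoside (250 μM) turnover over 20 min at 37 °C, pH 5.5, measured after NaOH/glycine stop (ex 365, em 450 nm). Enzyme source: lysate (0.083 mg/mL) of lentivirally transduced GBA2-HEK293T, GCase blocked by 20 μM azaspiro-octanediol; compound preincubated 5 min; IC50 = 50% inhibition concentration.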

[4] = cellular homogenate of HEK293T cells overexpressing human GBA2, 250 μM 4-methylumbelliferone-β-D glucopyranoside, pH 5.5, 37° C., GCase inhibitor present, read-out: GBA2 IC50

Row | binding specificity (IC50 or Ki of other molecule / GBA2) (GBA2 [1]) | IC50 (GBA2 [3]; [4]) | Structure (SMILES) | brain concentration when administered in vivo [2] | IC50 (GBA2 [3])
1 | enhanced binding specificity | < 100 nM | CC(C)[C@H]1CC[C@@H](CN2C[C@H](O)[C@@H](O)[C@H](O)[C@H]2C)CC1 [Example 7, (2R,3R,4R,5S)-1-(((1s,4S)-4-isopropylcyclohexyl)methyl)-2-methylpiperidine-3,4,5-triol] | higher brain concentrations | –
2 | enhanced binding specificity | < 100 nM | C[C@@H]1[C@@H](O)[C@H](O)[C@@H](O)CN1C[C@H]1CC[C@H](C(F)(F)F)CC1 [Example 12, (2R,3R,4R,5S)-2-methyl-1-(((1r,4R)-4-(trifluoromethyl)cyclohexyl)methyl)piperidine-3,4,5-triol] | higher brain concentrations | –
3 | – | < 100 nM | C[C@@H]1[C@@H](O)[C@H](O)[C@@H](O)CN1CC1CCN(c2ccc(F)cc2)CC1 [Example 85, (2R,3R,4R,5S)-1-((1-(4-fluorophenyl)piperidin-4-yl)methyl)-2-methylpiperidine-3,4,5-triol] | higher brain concentrations | –
4 | enhanced binding specificity | < 100 nM | C[C@@H]1[C@@H](O)[C@H](O)[C@@H](O)CN1C[C@@H]1CCCN(c2cnccc2C(F)(F)F)C1 [Example 142, (2R,3R,4R,5S)-2-methyl-1-(((S)-1-(4-(trifluoromethyl)pyridin-3-yl)piperidin-3-yl)methyl)piperidine-3,4,5-triol] | – | –
5 | enhanced binding specificity | < 100 nM | O[C@H]1[C@H](O)[C@@H](O)CN(C[C@H]2CC[C@H](C(F)(F)F)CC2)[C@@H]1CF [Example 147, (2S,3R,4R,5S)-2-(fluoromethyl)-1-(((1r,4S)-4-(trifluoromethyl)cyclohexyl)methyl)piperidine-3,4,5-triol] | – | –
6 | enhanced binding specificity | < 100 nM | O[C@H]1[C@H](O)[C@@H](O)CN(CCc2c(F)cc(-c3ccccc3)cc2F)[C@@H]1CF [Example 151, (2S,3R,4R,5S)-1-(2-(3,5-difluoro-[1,1′-biphenyl]-4-yl)ethyl)-2-(fluoromethyl)piperidine-3,4,5-triol] | – | –

Row | Structure (SMILES) | binding specificity (IC50 or Ki of other molecule / GBA2) (GBA2 [1]) | IC50 (GBA2 [3]; [4]) | brain concentration when administered in vivo [2] | IC50 (GBA2 [3])
7 | C[C@@H]1[C@@H](O)[C@H](O)[C@@H](O)CN1CCc1cccc(Cl)c1F [Example 45, (2R,3R,4R,5S)-1-(3-chloro-2-fluorophenethyl)-2-methylpiperidine-3,4,5-triol] | enhanced binding specificity | – | higher brain concentrations | < 100 nM
8 | C[C@@H]1[C@@H](O)[C@H](O)[C@@H](O)CN1CCc1c(F)ccc(Cl)c1F [Example 49, (2R,3R,4R,5S)-1-(3-chloro-2,6-difluorophenethyl)-2-methylpiperidine-3,4,5-triol] | enhanced binding specificity | – | higher brain concentrations | < 100 nM
9 | C[C@@H]1[C@@H](O)[C@H](O)[C@@H](O)CN1CCc1ccc2c(c1)OCO2 [Example 70, (2R,3R,4R,5S)-1-(2-(benzo[d][1,3]dioxol-5-yl)ethyl)-2-methylpiperidine-3,4,5-triol] | enhanced binding specificity | – | higher brain concentrations | < 100 nM
10 | O[C@H]1[C@H](O)[C@@H](O)CN(CCc2cc3c(cc2F)OCO3)[C@@H]1CF [Example 152, (2S,3R,4R,5S)-1-(2-(6-fluorobenzo[d][1,3]dioxol-5-yl)ethyl)-2-(fluoromethyl)piperidine-3,4,5-triol] | enhanced binding specificity | – | – | < 100 nM
